Data from the NIST ThermoML archive (doi:10.1016/j.jct.2005.06.011).
Numbers after ± are expanded uncertainties.

How the values were obtained:
[1] = refractive index (Na D-line) (dimensionless); xn = mol fraction of the nth substance listed; details: 101 kPa, Liquid
[2] = xn = mol fraction of the nth substance listed; details: 101 kPa, Liquid; for speed of sound: Linear variable-path acoustic interferometer

Row | Structure (SMILES) | refractive index ([1]; 298.15 K, x1 = 1) | refractive index ([1]; 303.15 K, x1 = 1) | refractive index ([1]; 308.15 K, x1 = 1) | speed of sound ([2]; 298.15 K, x1 = 1) [m/s] | mass density ([2]; 298.15 K, x1 = 1) [kg/m3] | viscosity ([2]; 298.15 K, x1 = 1) [mPa·s] | mass density ([2]; 303.15 K, x1 = 1) [kg/m3] | viscosity ([2]; 303.15 K, x1 = 1) [mPa·s] | mass density ([2]; 308.15 K, x1 = 1) [kg/m3] | viscosity ([2]; 308.15 K, x1 = 1) [mPa·s] | refractive index ([1]; 298.15 K, x2 = 0) | refractive index ([1]; 303.15 K, x2 = 0) | refractive index ([1]; 308.15 K, x2 = 0) | speed of sound ([2]; 298.15 K, x2 = 0) [m/s] | mass density ([2]; 298.15 K, x2 = 0) [kg/m3] | viscosity ([2]; 298.15 K, x2 = 0) [mPa·s] | mass density ([2]; 303.15 K, x2 = 0) [kg/m3] | viscosity ([2]; 303.15 K, x2 = 0) [mPa·s] | mass density ([2]; 308.15 K, x2 = 0) [kg/m3] | viscosity ([2]; 308.15 K, x2 = 0) [mPa·s]
1 | CC1CCCCC1 [methylcyclohexane] + CC(C)CCO | 1.4217 ± 0.0013 | 1.4192 ± 0.0013 | 1.4163 ± 0.0013 | 1217 ± 4 | 764.99 ± 7.7 | 0.6757 ± 0.0095 | 760.66 ± 7.6 | 0.631 ± 0.0089 | 756.3 ± 7.6 | 0.5902 ± 0.0085 | – | – | – | – | – | – | – | – | – | –
2 | CCCO [propan-1-ol] + CC1CCCCC1 | – | – | – | – | – | – | – | – | – | – | 1.384 ± 0.0012 | 1.3819 ± 0.0012 | 1.38 ± 0.0012 | 1206 ± 4 | 809.65 ± 8.1 | 2.077 ± 0.024 | 805.5 ± 8.1 | 1.809 ± 0.022 | 801.32 ± 8 | 1.595 ± 0.019
3 | CC(C)CO [2-methyl-1-propanol] + CC1CCCCC1 | – | – | – | – | – | – | – | – | – | – | 1.3932 ± 0.0013 | 1.3917 ± 0.0013 | 1.3896 ± 0.0013 | 1170 ± 4 | 809.31 ± 8.1 | 3.097 ± 0.038 | 805.23 ± 8.1 | 2.635 ± 0.032 | 801.11 ± 8 | 2.249 ± 0.028
4 | CCO [ethanol] + CC1CCCCC1 | – | – | – | – | – | – | – | – | – | – | 1.3608 ± 0.0012 | 1.3589 ± 0.0012 | 1.3563 ± 0.0012 | 1161 ± 4 | 785.66 ± 7.9 | 1.083 ± 0.013 | 781.34 ± 7.8 | 0.985 ± 0.012 | 776.99 ± 7.8 | 0.8954 ± 0.011
